Test results: patent publication EP0993439B1, “4-BROMO OR 4-IODO PHENYLAMINO BENZHYDROXAMIC ACID DERIVATIVES AND THEIR USE AS MEK INHIBITORS” (priority 1997, dated 1999)

Legend:
MEK [1] = target: T1, MEK (Homo sapiens, UniProt Q02750); test: Cascade assay for inhibitors of the MAP kinase pathway (32P incorporation into MBP with GST-MEK and GST-MAPK); assay type: biochemical; details: read-out: % Inhibition In Vitro
Protocol: Incorporation of ^32P into myelin basic protein (MBP) was assayed in the presence of a glutathione S-transferase fusion protein containing p44MAP kinase (GST-MAPK) and a glutathione S-transferase fusion protein containing p45MEK (GST-MEK). The assay solution contained 20 mM HEPES, pH 7.4, 10 mM MgCl2, 1 mM MnCl2, 1 mM EGTA, 50 µM [γ-^32P]ATP, 10 µg GST-MEK, 0.5 µg GST-MAPK and 40 µg MBP in a final volume of 100 µL. […] Compounds were assessed at 10 µM for ability to inhibit incorporation of ^32P.
To ascertain whether compounds were inhibiting GST-MEK or GST MAPK, two additional protocols were employed. In the first protocol, compounds were added to tubes containing GST-MEK, followed by addition of GST-MAPK, MBP and [γ-^32P]ATP. In the second protocol, compounds were added to tubes containing both GST-MEK and GST-MAPK, followed by MBP and [γ-^32P]ATP.

MEK [2] = target: T1, MEK; test: as above; assay type: biochemical; details: read-out: % Inhibition In Vitro; remark: listed apart in the source
[3] = test system: murine colon tumor, C26/clone 10; test: Murine colon tumor C26/clone 10 implanted subcutaneously in mice, compound given IP or PO on Days 1 through 14; assay type: in vivo, Male CD2F1 mice; details: for Change in Body Weight (grams): Days 1 through 14
Protocol: Male CD2F1 mice (NCI: Charles River, Kingston) were implanted subcutaneously with tumor fragments (approximately 30 mg) in the region of the right axilla on Day 0. […] The vehicle for the test compound, and for control animals, was 10% EtOH/10% Cremophor-EL (Sigma)/80% H2O, pH 5.0. Tumor volumes were recorded three times per week by measuring the length and width of the individual tumors and calculating mass in milligrams according to the formula (a × b^2)/2, where a and b are the length and width of the tumor. Percent treated/control (T/C) was calculated based on the ratio of the median tumor volume of the treated tumors compared with the median tumor volume of control animals on specified measurement days.

T1 sequence (Q02750 whole entry, the tested form may be a part): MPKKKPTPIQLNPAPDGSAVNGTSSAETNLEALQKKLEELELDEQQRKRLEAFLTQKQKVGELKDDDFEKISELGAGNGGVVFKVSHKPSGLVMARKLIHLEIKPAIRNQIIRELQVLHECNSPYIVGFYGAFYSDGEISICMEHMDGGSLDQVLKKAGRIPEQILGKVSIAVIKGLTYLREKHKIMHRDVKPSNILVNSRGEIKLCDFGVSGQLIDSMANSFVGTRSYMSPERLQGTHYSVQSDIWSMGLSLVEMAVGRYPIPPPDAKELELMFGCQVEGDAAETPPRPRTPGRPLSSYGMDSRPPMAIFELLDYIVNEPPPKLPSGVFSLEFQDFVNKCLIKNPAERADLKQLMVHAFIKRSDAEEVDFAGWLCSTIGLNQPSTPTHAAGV

inhibition at 10 µM (MEK [1])	inhibition at 1 µM (MEK [2])	Compound	also measured
19%	-5%	Cc1ccc(Cl)c(Nc2ccccc2C(=O)N(C)O)c1Cl [the 8th table: R6=CH3, R7=H]	
9%	17%	Cc1ccc(Cl)c(Nc2ccccc2C(=O)N(O)C(C)C)c1Cl [the 8th table: R6=iPr, R7=H]	
8%	-8%	CONC(=O)c1ccccc1Nc1c(Cl)ccc(C)c1Cl [the 8th table: R6=H, R7=CH3]	
-4%	6%	Cc1cccc(Nc2ccccc2C(=O)NO)c1C [the 9th table: R6=H, R7=H]	
-3%	9%	Cc1ccc(Cl)c(Nc2ccccc2C(=O)NO)c1Cl [the 8th table: R6=H, R7=H]	

Further lines, the compound ahead of its results:

Compound	inhibition at 10 µM (MEK [1])	inhibition at 1 µM (MEK [2])	also measured
Cc1cccc(Nc2ccccc2C(=O)N(C)O)c1C [the 9th table: R6=CH3, R7=H]	19%	13%	
Cc1ccc(Cl)c(Nc2ccccc2C(=O)N(O)Cc2ccccc2)c1Cl [the 8th table: R6=CH2-Ph, R7=H]	18%	-4%	
CONC(=O)c1ccccc1Nc1cccc(C)c1C [the 9th table: R6=H, R7=CH3]	12%	-6%	
Cc1cccc(Nc2ccccc2C(=O)N(O)C(C)C)c1C [the 9th table: R6=iPr, R7=H]	7%	-11%	
O=C(NOCC1CC1)c1ccc(F)c(F)c1Nc1ccc(I)cc1Cl [Example 95, 3,4-Difluoro-2-(2-chloro-4-iodo-phenylamino)-N-cyclopropylmethoxy-benzamide]			% T/C (Day 15) ([3]; IP, 48 mg/kg/day): 41%; Change in Body Weight (grams) ([3]; IP, 48 mg/kg/day): +3 grams; % T/C (Day 15) ([3]; IP, 77 mg/kg/day): 2%; Change in Body Weight (grams) ([3]; IP, 77 mg/kg/day): +2 grams; % T/C (Day 15) ([3]; IP, 124 mg/kg/day): 4%; Change in Body Weight (grams) ([3]; IP, 124 mg/kg/day): +3 grams; % T/C (Day 15) ([3]; IP, 200 mg/kg/day): 0%; Change in Body Weight (grams) ([3]; IP, 200 mg/kg/day): +2 grams; % T/C (Day 17) ([3]; PO, 71 mg/kg/day): 36%; Change in Body Weight (grams) ([3]; PO, 71 mg/kg/day): +2 grams; % T/C (Day 17) ([3]; PO, 115 mg/kg/day): 21%; Change in Body Weight (grams) ([3]; PO, 115 mg/kg/day): +2 grams; % T/C (Day 17) ([3]; PO, 186 mg/kg/day): 25%; Change in Body Weight (grams) ([3]; PO, 186 mg/kg/day): +2 grams; % T/C (Day 17) ([3]; PO, 300 mg/kg/day): 17%; Change in Body Weight (grams) ([3]; PO, 300 mg/kg/day): +2 grams
